The results in this text go back to patent US10266549B2, “ULK1 inhibitors and methods using same” (SALK INSTITUTE FOR BIOLOGICAL STUDIES, priority 2014, dated 2019).

A word on the IC50: it is the concentration that inhibits the measured activity by half.

The target of this assay is ULK1 (Homo sapiens (Human), UniProt O75385). Kind of assay: ULK1 inhibition assay (Table 1). It is filed as biochemical. The conditions noted are these: * = tested as a mixture of regioisomers.
Chain of ULK1 (O75385 whole entry, species assumed): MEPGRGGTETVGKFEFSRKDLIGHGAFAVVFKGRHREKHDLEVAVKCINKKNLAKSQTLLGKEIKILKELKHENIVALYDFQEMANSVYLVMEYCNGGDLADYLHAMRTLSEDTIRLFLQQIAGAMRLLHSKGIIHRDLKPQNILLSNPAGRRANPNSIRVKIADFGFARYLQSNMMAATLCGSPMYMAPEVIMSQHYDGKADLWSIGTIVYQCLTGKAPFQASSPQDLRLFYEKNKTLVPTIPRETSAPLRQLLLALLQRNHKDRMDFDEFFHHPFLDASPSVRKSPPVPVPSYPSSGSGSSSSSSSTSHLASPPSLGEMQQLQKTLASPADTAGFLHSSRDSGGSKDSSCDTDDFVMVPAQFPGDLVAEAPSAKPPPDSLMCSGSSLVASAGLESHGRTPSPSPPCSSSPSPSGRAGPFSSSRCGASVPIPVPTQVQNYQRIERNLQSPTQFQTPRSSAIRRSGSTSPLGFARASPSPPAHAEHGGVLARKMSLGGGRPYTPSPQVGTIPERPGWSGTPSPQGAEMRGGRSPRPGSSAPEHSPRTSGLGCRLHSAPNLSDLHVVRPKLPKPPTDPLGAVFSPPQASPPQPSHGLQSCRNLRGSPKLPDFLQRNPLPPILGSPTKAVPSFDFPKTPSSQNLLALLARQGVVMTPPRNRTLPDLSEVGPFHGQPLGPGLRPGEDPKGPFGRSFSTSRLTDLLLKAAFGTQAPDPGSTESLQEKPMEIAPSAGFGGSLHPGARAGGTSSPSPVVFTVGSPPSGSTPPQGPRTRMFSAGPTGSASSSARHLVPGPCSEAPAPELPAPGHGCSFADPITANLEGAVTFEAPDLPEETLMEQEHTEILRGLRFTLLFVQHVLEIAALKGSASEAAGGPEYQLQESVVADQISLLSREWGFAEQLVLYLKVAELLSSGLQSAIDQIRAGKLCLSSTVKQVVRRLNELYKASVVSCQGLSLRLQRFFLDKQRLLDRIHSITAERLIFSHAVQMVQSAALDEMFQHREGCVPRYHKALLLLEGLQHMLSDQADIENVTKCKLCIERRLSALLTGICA
Regarding `COc1cccc(Nc2nc(Nc3ccc4c(c3)CCC(=O)N4)ncc2C(F)(F)F)c1` [compound 119, 6-((4-((3-methoxyphenyl)amino)-5-(trifluoromethyl)pyrimidin-2-yl)amino)-3,4-dihydroquinolin-2(1H)-one], the IC50 is below 200 nM.

For `O=C1CCc2cc(Nc3ncc(C(F)(F)F)c(Nc4cccc(OCc5ccccc5)c4)n3)ccc2N1` [compound 121, 6-((4-((3-(benzyloxy)phenyl)amino)-5-(trifluoromethyl)pyrimidin-2-yl)amino)-3,4-dihydroquinolin-2(1H)-one], the IC50 fell in the range of 200 to 2000 nM.

Take `FC(F)(F)c1cnc(NC2CC2)nc1Nc1cnc2[nH]ccc2c1` [152b, N^2-cyclopropyl-N^4-(1H-pyrrolo[2,3-b]pyridin-5-yl)-5-(trifluoromethyl)pyrimidine-2,4-diamine]: the IC50 was 200 to 2000 nM.

For `O=C1CCc2cc(Nc3ncc(C(F)(F)F)c(Nc4ccccc4)n3)ccc2N1` [compound 48, 6-(4-(Phenylamino)-5-(trifluoromethyl)pyrimidin-2-ylamino)-3,4-dihydroquinolin-2(1H)-one], the IC50 was below 200 nM.

Regarding `O=C1CCc2cc(Nc3ncc(Br)c(NC4CC4)n3)ccc2N1` [compound 159, 6-((5-bromo-4-(cyclopropylamino)pyrimidin-2-yl)amino)-3,4-dihydroquinolin-2(1H)-one], the IC50 was below 200 nM.

`COc1cc(Nc2nc(-n3nnc4ccccc43)ncc2Br)cc(O)c1OC` [Example 331b]: the IC50 lay within 200 to 2000 nM.

Take `COc1ccc(C)c(Nc2ncc(Cl)c(NCc3cccc(S(C)(=O)=O)c3)n2)c1` [compound 41, 5-Chloro-N^2-(5-methoxy-2-methylphenyl)-N^4-(3-(methylsulfonyl)benzyl)pyrimidine-2,4-diamine]: the IC50 was above 2000 nM.

For `CNC(=O)c1ccccc1Oc1nc(Nc2cc(OC)c(OC)c(OC)c2)ncc1C(F)(F)F` [compound 92, N-Methyl-2-(5-(trifluoromethyl)-2-(3,4,5-trimethoxyphenylamino)pyrimidin-4-yloxy)benzamide], the IC50 is below 200 nM.

Consider `CNc1ncc(C(F)(F)F)c(Nc2cnc3[nH]ccc3c2)n1` [182b, N2-methyl-N4-(1H-pyrrolo[2,3-b]pyridin-5-yl)-5-(trifluoromethyl)pyrimidine-2,4-diamine], for which the IC50 fell in the range of 200 to 2000 nM.

On to `O=C1CCc2cc(Nc3ncc(C(F)(F)F)c(C#Cc4ccccc4)n3)ccc2N1` [compound 64, 6-(4-(Phenylethynyl)-5-(trifluoromethyl)pyrimidin-2-ylamino)-3,4-dihydroquinolin-2(1H)-one], for which the IC50 was above 2000 nM.

`COc1ccc(C)c(Nc2ncc(Br)c(Nc3ccccn3)n2)c1` [compound 26, 5-Bromo-N^2-(5-methoxy-2-methylphenyl)-N^4-(pyridin-2-yl) pyrimidine-2,4-diamine]: the IC50 fell in the range of 200 to 2000 nM.

As to `O=C1CCc2cc(Nc3ncc(C(F)(F)F)c(SCc4ccccc4)n3)ccc2N1` [compound 62, 6-(4-(Benzylthio)-5-(trifluoromethyl)pyrimidin-2-ylamino)-3,4-dihydroquinolin-2(1H)-one], the IC50 is below 200 nM.

As for `FC(F)(F)c1cnc(Nc2cnc3[nH]ccc3c2)nc1Nc1ccc2c(c1)OCO2` [compound 177, N4-(benzo[d][1,3]dioxol-5-yl)-N2-(1H-pyrrolo[2,3-b]pyridin-5-yl)-5-(trifluoromethyl)pyrimidine-2,4-diamine], the IC50 was below 200 nM.

`CNC(=O)c1ccccc1Oc1nc(Nc2ccc(C)c(Br)c2)ncc1C(F)(F)F` [compound 102, 2-((2-((3-bromo-4-methylphenyl)amino)-5-(trifluoromethyl)pyrimidin-4-yl)oxy)-N-methylbenzamide]: the IC50 is above 2000 nM.

For the compound `O=C1CCc2cc(Nc3ncc(C(F)(F)F)c(Nc4ccccc4OC(F)F)n3)ccc2N1` [120a, 6-((4-((2-(difluoromethoxy)phenyl)amino)-5-(trifluoromethyl)pyrimidin-2-yl)amino)-3,4-dihydroquinolin-2(1H)-one], the IC50 was below 200 nM.

Regarding `COc1cc(Nc2ncc(C(F)(F)F)c(NCc3cccc(S(C)(=O)=O)c3)n2)cc(OC)c1OC` [compound 31, N^4-(3-(Methylsulfonyl)benzyl)-5-(trifluoromethyl)-N^2-(3,4,5-trimethoxyphenyl)pyrimidine-2,4-diamine], the IC50 is below 200 nM.

As to `CNC(=O)c1ccccc1Nc1nc(Nc2cccc(OC)c2)ncc1Cl` [compound 44, 2-(5-Chloro-2-(3-methoxyphenylamino)pyrimidin-4-ylamino)-N-methylbenzamide], the IC50 was below 200 nM.

Consider `O=C1CCc2cc(Nc3nc(Nc4ccccc4N4CCOCC4)ncc3C(F)(F)F)ccc2N1` [118b, 6-((2-((2-morpholinophenyl)amino)-5-(trifluoromethyl)pyrimidin-4-yl)amino)-3,4-dihydroquinolin-2(1H)-one], for which the IC50 is above 2000 nM.

On to `CNC(=O)c1ccccc1Nc1nc(Nc2ccc(N3CCOCC3)cc2OC)ncc1Cl` [compound 12, 2-(5-Chloro-2-(2-methoxy-4-morpholinophenylamino)pyrimidin-4-ylamino)-N-methylbenzamide], for which the IC50 was below 200 nM.

As for `Cc1cnc(Nc2ccc3c(c2)CCC(=O)N3)nc1NCc1cccc(S(C)(=O)=O)c1` [compound 67, 6-((5-Methyl-4-((3-(methylsulfonyl)benzyl)amino)pyrimidin-2-yl)amino)-3,4-dihydroquinolin-2(1H)-one], the IC50 is above 2000 nM.

For `COc1cc(N2CCOCC2)ccc1Nc1ncc(C(F)(F)F)c(Nc2ccccn2)n1` [compound 46, N^2-(2-Methoxy-4-morpholinophenyl)-N^4-(pyridin-2-yl)-5-(trifluoromethyl) pyrimidine-2,4-diamine], the IC50 was in the range of 200 to 2000 nM.

Consider `CNC(=O)c1ccccc1Nc1nc(Nc2ccccc2C)ncc1Cl` [compound 53, 2-(5-Chloro-2-(o-tolylamino)pyrimidin-4-ylamino)-N-methylbenzamide], for which the half-maximal inhibitory concentration (IC50) is above 2000 nM.

For `CNC(=O)c1ccccc1Nc1nc(Nc2cc(OC)ccc2C)ncc1Cl` [compound 16, 2-(5-Chloro-2-(5-methoxy-2-methylphenylamino)pyrimidin-4-ylamino)-N-methylbenzamide], the IC50 is below 200 nM.

Consider `CNC(=O)c1ccccc1Nc1nc(Nc2cc(OC)c(OC)c(OC)c2)ncc1/C=C/c1ccccc1` [compound 71, (E)-N-Methyl-2-((5-styryl-2-((3,4,5-trimethoxyphenyl)amino)pyrimidin-4-yl)amino)benzamide], for which the IC50 was below 200 nM.

With `FC(F)Oc1ccccc1Nc1ncc(C(F)(F)F)c(Nc2ccccc2OC(F)F)n1` [120b, N^2,N^4-bis(2-(difluoromethoxy)phenyl)-5-(trifluoromethyl)pyrimidine-2,4-diamine], the IC50 was in the range of 200 to 2000 nM.

Turning to `O=C1CCc2cc(Nc3ncc(C(F)(F)F)c(-c4ccccc4)n3)ccc2N1` [compound 72, 6-(4-Phenyl-5-(trifluoromethyl)pyrimidin-2-ylamino)-3,4-dihydroquinolin-2(1H)-one], the IC50 was above 2000 nM.

With `CS(=O)(=O)c1cccc(CNc2nc(Nc3ccc4c(c3)CCC(=O)N4)ncc2C(F)(F)F)c1` [compound 32, 6-(4-(3-(Methylsulfonyl)benzylamino)-5-(trifluoromethyl)pyrimidin-2-ylamino)-3,4-dihydroquinolin-2(1H)-one], the IC50 fell in the range of 200 to 2000 nM.

As for `O=C1CCc2cc(Nc3ncc(C(F)(F)F)c(Nc4nccs4)n3)ccc2N1` [compound 58, 6-(4-(Thiazol-2-ylamino)-5-(trifluoromethyl)pyrimidin-2-ylamino)-3,4-dihydroquinolin-2(1H)-one], the IC50 was above 2000 nM.

`Cc1cccc(Oc2nc(Nc3ccc4c(c3)CCC(=O)N4)ncc2C(F)(F)F)c1C` [compound 83, 6-((4-(2,3-Dimethylphenoxy)-5-(trifluoromethyl)pyrimidin-2-yl)amino)-3,4-dihydroquinolin-2(1H)-one]: the IC50 is below 200 nM.

Turning to `O=C1CCc2cc(Nc3ncc(C(F)(F)F)c(OCc4ccccc4)n3)ccc2N1` [compound 81, 6-(4-(Benzyloxy)-5-(trifluoromethyl)pyrimidin-2-ylamino)-3,4-dihydroquinolin-2(1H)-one], the IC50 was below 200 nM.

`O=C1CCc2cc(Nc3ncc(C(F)(F)F)c(OC4Cc5ccccc5C4)n3)ccc2N1` [180a, 6-((4-((2,3-dihydro-1H-inden-2-yl)oxy)-5-(trifluoromethyl)pyrimidin-2-yl)amino)-3,4-dihydroquinolin-2(1H)-one]: the IC50 was below 200 nM.

Regarding `CNC(=O)c1ccccc1Nc1nc(Nc2ccc3c(c2)CC(=O)N3)ncc1Cl` [compound 21, 2-(5-Chloro-2-(2-oxoindolin-5-ylamino)pyrimidin-4-ylamino)-N-methylbenzamide], the IC50 is below 200 nM.

Consider `O=C1CCc2cc(Nc3ncc(C(F)(F)F)c(/C=C/c4ccccc4)n3)ccc2N1` [compound 69, (E)-6-(4-Styryl-5-(trifluoromethyl)pyrimidin-2-ylamino)-3,4-dihydroquinolin-2(1H)-one], for which the IC50 was below 200 nM.

Take `Oc1ncc(C(F)(F)F)c(Nc2ccccc2N2CCOCC2)n1` [118c, 4-((2-morpholinophenyl)amino)-5-(trifluoromethyl)pyrimidin-2-ol]: the IC50 was above 2000 nM.

Consider `CSc1ccccc1Nc1ncc(C(F)(F)F)c(Nc2ccccc2SC)n1` [116b, N^2,N^4-bis(2-(methylthio)phenyl)-5-(trifluoromethyl)pyrimidine-2,4-diamine], for which the IC50 is above 2000 nM.

On to `COc1cc(Nc2ncc(C(F)(F)F)c(Nc3ccccn3)n2)cc(OC)c1OC` [compound 38, N^4-(Pyridin-2-yl)-5-(trifluoromethyl)-N^2-(3,4,5-trimethoxyphenyl)pyrimidine-2,4-diamine], for which the IC50 was 200 to 2000 nM.

Turning to `CNC(=O)c1ccccc1Nc1nc(Nc2ccc3c(c2)CCC(=O)N3)ncc1C(F)(F)F` [compound 76, N-Methyl-2-(2-(2-oxo-1,2,3,4-tetrahydroquinolin-6-ylamino)-5-(trifluoromethyl)pyrimidin-4-ylamino)benzamide], the half-inhibitory concentration (IC50) is below 200 nM.

In the case of `FC(F)(F)c1cnc(Nc2ccc3c(c2)OCO3)nc1NCC1CC1` [167b, N^2-(benzo[d][1,3]dioxol-5-yl)-N^4-(cyclopropylmethyl)-5-(trifluoromethyl)pyrimidine-2,4-diamine], the 50% inhibitory concentration (IC50) was below 200 nM.
